Where two headings read alike, the source gives them in different places.
Key:
α7-5HT3 = biological target: T1, α7-5HT3 (Homo sapiens, UniProt P36544, M226I/T225I); assay: Agonist potency (EC50), HEK cells expressing chimeric channel; assay type: cell-based, human α7 nAChR LBD, murine 5HT3 IPD
T1 construct: expressed in transfected cells; host or cells: HEK cells

α7-GlyR = biological target: T2, α7-GlyR (Homo sapiens, UniProt P36544); assay: as above; assay type: cell-based
T2 construct: expressed in transfected cells; host or cells: HEK cells

[1] = system: α7GlyR chimeric channels with G175K and A298G mutations; assay type: cell-based, human
α7^G175K-GlyR = biological target: T3, α7^G175K-GlyR (Homo sapiens, UniProt P36544, G175K); assay: Agonist potency at chimeric channel; assay type: cell-based; settings: for EC50: Table 6, read-out: Potency, a7GlyR G175K
T3 construct: expressed in transfected cells

α7^Y115F,G175K-GlyR = biological target: T4, α7^Y115F,G175K-GlyR (Homo sapiens, UniProt P36544, G175K/Y115F); assay: Agonist potency at chimeric channel; assay type: cell-based; settings: Table 6; read-out: Potency, a7GlyR Y115F G175K
T4 construct: expressed in transfected cells

α7^W77F,Q79G,G175K-GlyR = biological target: T5, α7^W77F,Q79G,G175K-GlyR (Homo sapiens, UniProt P36544, G175K/Q79G/W77F); assay: Agonist potency at chimeric channel; assay type: cell-based; settings: Table 6; read-out: Potency, a7GlyR W77F Q79G G175K
T5 construct: expressed in transfected cells

α7^Q79G,Y115F,G175K-GlyR = biological target: T6, α7^Q79G,Y115F,G175K-GlyR (Homo sapiens, UniProt P36544, G175K/Q79G/Y115F); assay: Agonist potency at chimeric channel; assay type: cell-based; settings: Table 6; read-out: Potency, a7Gly Q79G G175K Y115F
T6 construct: expressed in transfected cells

α7^Q79G-GlyR^A298G = biological target: T7, α7^Q79G-GlyR^A298G (Homo sapiens, UniProt P36544, A298G/Q79G); assay: Agonist potency (EC50), HEK cells expressing chimeric channel; assay type: cell-based; settings: HEK cells; Table 3; read-out: α7^Q79G-GlyR^A298G EC50
T7 construct: expressed in transfected cells; host or cells: HEK cells

α7^Q79G,G175K-GlyR = biological target: T8, α7^Q79G,G175K-GlyR (Homo sapiens, UniProt P36544, G175K/Q79G); assay: Agonist potency at chimeric channel; assay type: cell-based; settings: Table 6; read-out: Potency, a7GlyR Q79G G175K
T8 construct: expressed in transfected cells

[2] = biological target: T9, α7GlyR Q79G G175K Y115F R27D E41R (Homo sapiens, UniProt P36544, E41R/G175K/Q79G/R27D/Y115F); assay: Agonist potency at chimeric channel; assay type: cell-based; settings: Table 6; read-out: Potency, a7GlyR Q79G G175K Y115F R27D E41R
T9 construct: expressed in transfected cells

[3] = Table 6, read-out: Potency, a7-5HT3
[4] = HEK cells, Table 3, read-out: α7-5HT3 EC50
[5] = HEK cells, Table 3, read-out: α7-GlyR EC50

T2 sequence (P36544 with tags, fused parts or gaps): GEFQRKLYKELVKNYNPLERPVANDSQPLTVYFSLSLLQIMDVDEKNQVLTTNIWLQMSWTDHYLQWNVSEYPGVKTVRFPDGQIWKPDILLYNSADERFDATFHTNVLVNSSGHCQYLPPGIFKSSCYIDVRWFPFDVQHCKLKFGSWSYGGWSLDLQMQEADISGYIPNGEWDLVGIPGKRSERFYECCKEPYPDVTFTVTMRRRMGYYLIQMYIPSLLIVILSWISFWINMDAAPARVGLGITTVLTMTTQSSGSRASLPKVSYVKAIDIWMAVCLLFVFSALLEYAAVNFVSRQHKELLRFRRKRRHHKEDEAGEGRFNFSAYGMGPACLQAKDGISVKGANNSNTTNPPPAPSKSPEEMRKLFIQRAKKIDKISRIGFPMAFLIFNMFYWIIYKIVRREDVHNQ
T7 sequence (P36544 with tags, fused parts or gaps Q79G): as the sequence (P36544 with tags, fused parts or gaps) above, with Q57G, A276G counted along it
T1 sequence (P36544 with tags, fused parts or gaps T225I/M226I): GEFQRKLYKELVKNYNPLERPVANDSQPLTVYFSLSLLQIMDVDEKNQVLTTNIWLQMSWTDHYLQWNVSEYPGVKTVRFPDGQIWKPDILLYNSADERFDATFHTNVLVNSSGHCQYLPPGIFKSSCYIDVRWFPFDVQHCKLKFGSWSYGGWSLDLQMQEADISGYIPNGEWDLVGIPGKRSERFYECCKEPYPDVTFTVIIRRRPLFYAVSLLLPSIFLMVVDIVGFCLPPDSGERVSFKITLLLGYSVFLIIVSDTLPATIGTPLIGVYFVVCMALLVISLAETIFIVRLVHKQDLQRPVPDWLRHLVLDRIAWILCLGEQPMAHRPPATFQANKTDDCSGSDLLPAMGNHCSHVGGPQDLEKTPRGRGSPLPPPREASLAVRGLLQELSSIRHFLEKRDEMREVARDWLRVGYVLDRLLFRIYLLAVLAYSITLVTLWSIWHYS
T3 sequence (P36544 with tags, fused parts or gaps G175K): as the sequence (P36544 with tags, fused parts or gaps) above, with G153K counted along it
T6 sequence (P36544 with tags, fused parts or gaps Q79G/Y115F/G175K): as the sequence (P36544 with tags, fused parts or gaps) above, with Q57G, Y93F, G153K counted along it
T4 sequence (P36544 with tags, fused parts or gaps Y115F/G175K): as the sequence (P36544 with tags, fused parts or gaps) above, with Y93F, G153K counted along it
T5 sequence (P36544 with tags, fused parts or gaps W77F/Q79G/G175K): as the sequence (P36544 with tags, fused parts or gaps) above, with W55F, Q57G, G153K counted along it
T9 sequence (P36544 with tags, fused parts or gaps R27D/E41R/Q79G/Y115F/G175K): as the sequence (P36544 with tags, fused parts or gaps) above, with R5D, E19R, Q57G, Y93F, G153K counted along it
T8 sequence (P36544 with tags, fused parts or gaps Q79G/G175K): as the sequence (P36544 with tags, fused parts or gaps) above, with Q57G, G153K counted along it

With CN1C2CCCC1CC(NC(=O)c1nn(C)c3ccccc13)C2 (stereo not drawn) [Granisetron] the “activation of α7-5HT3” value (α7-5HT3) was “does not activate” and the “activation of α7-GlyR” value (α7-GlyR) was “does not activate”.

O=C(O[C@H]1C[C@H]2CC[C@@H](C1)N2)c1c[nH]c2ccccc12 [Nortropisetron] was tested, and the EC50 ([1]; α7GlyR Q79G A298G G175K Y115F; read-out: Agonist potency) was 8.4 nM and the EC50 ([1]; α7GlyR Q79G A298G Y115F K395 K396A; read-out: Agonist potency) was 6.3 nM.

Work on CN1C2CCC1CC(NC(=S)c1cn(C)c3ccccc13)C2 (stereo not drawn) [Compound 622] yielded an EC50 (α7-5HT3; [3]) greater than 100000 nM, an EC50 (α7^G175K-GlyR) of 870 nM and an EC50 (α7^Y115F,G175K-GlyR) of 2500 nM. It also gave an EC50 (α7^W77F,Q79G,G175K-GlyR) of 1700 nM and an EC50 (α7^Q79G,Y115F,G175K-GlyR) of 930 nM.

O=C(NC1CN2CCC1CC2)c1ccc(C(F)(F)F)cn1 (stereo not drawn) [Compound 0295] gave an EC50 (α7-5HT3; [4]) greater than 100000 nM, an EC50 (α7-GlyR; [5]) greater than 100000 nM and an EC50 (α7^Q79G-GlyR^A298G) of 4600 nM.

O=C(NC1CN2CCC1CC2)c1c[nH]c2ccccc12 (stereo not drawn) [Compound 0676] showed an EC50 (α7-5HT3; [4]) of 30 nM and an EC50 (α7^Q79G-GlyR^A298G) of 2 nM.

FC(F)(F)Oc1ccc(NC(=S)N[C@@H]2CN3CCC2CC3)cc1 [Compound 713] was tested, and the EC50 (α7-5HT3; [3]) was greater than 100000 nM, the EC50 (α7^G175K-GlyR) was 2100 nM and the EC50 (α7^Y115F,G175K-GlyR) was greater than 10000 nM. It also gave an EC50 (α7^Q79G,G175K-GlyR) of 540 nM, an EC50 (α7^Q79G,Y115F,G175K-GlyR) of 23900 nM and an EC50 [2] greater than 10000 nM.

In the case of CN1CCCC1c1cccnc1 (stereo not drawn) [Nicotine], the “potency enhancement over α7-GlyR” value (α7^G175K-GlyR) is reported as 10 fold, the EC50 ([1]; read-out: Agonist potency; α7GlyR Q79G A298G G175K Y115F) is reported as 3300 nM and the EC50 ([1]; read-out: Agonist potency; α7GlyR Q79G A298G P2161) is reported as 1600 nM. It also gave an EC50 ([1]; read-out: Agonist potency; α7GlyR Q79G A298G Y115F K395 K396A) of 16500 nM, an EC50 ([1]; read-out: Agonist potency; α7GlyR Q79G G175K A298G) of 110 nM and an EC50 ([1]; read-out: Agonist potency; α7GlyR Q79G W77F A298G) of 3800 nM.

S=C(Nc1ccc(Cl)cc1)NC1CN2CCC1CC2 (stereo not drawn) [Compound 0354] was tested, and the “partial agonist activity, α7-5HT3” value (α7-5HT3; HEK cells, Table 3) was “partial”, the EC50 (α7-5HT3; read-out: α7-5HT3 EC50, HEK cells, Table 3) was 1400 nM and the EC50 (α7-GlyR) was 1000 nM. For the same compound, the EC50 (α7^Q79G-GlyR^A298G) was 30 nM.

Compound O=C(NC1C2CCN(CC2)C1Cc1cccnc1)c1ccc(C(F)(F)F)cc1 (mixture of isomers) [Compound 0436] has an EC50 (α7-5HT3; [4]) of 840 nM, an EC50 (α7-GlyR; [5]) of 310 nM and an EC50 (α7^Q79G-GlyR^A298G) of 6 nM.

With Fc1ccc(NC(=S)N[C@H]2CN3CCC2CC3)cc1Cl [Compound 702] the EC50 (α7-5HT3; [3]) was greater than 100000 nM.

c1ccc2c(c1)Sc1ccccc1N2CC1CN2CCC1CC2 (stereo not drawn) [Mequitazine] gave an EC50 (α7-5HT3; [3]) greater than 30000 nM, an EC50 (α7^W77F,Q79G,G175K-GlyR) of 150 nM and an EC50 (α7^Q79G,Y115F,G175K-GlyR) greater than 10000 nM.

Work on O=C(NC1CN2CCC1CC2)c1ccc(C(F)(F)F)nc1 (stereo not drawn) [Compound 0296] yielded an EC50 (α7-5HT3; [4]) greater than 100000 nM and an EC50 (α7^Q79G-GlyR^A298G) of 450 nM.
